In general, IC50 refers to the concentration that gives 50% inhibition.

The target of one experiment is T1, LRRK2^KW (Homo sapiens, UniProt Q5S007).
T1 construct: Kinase and WD40 domain construct (KW)
T1 sequence (Q5S007 whole entry, the tested form may be a part): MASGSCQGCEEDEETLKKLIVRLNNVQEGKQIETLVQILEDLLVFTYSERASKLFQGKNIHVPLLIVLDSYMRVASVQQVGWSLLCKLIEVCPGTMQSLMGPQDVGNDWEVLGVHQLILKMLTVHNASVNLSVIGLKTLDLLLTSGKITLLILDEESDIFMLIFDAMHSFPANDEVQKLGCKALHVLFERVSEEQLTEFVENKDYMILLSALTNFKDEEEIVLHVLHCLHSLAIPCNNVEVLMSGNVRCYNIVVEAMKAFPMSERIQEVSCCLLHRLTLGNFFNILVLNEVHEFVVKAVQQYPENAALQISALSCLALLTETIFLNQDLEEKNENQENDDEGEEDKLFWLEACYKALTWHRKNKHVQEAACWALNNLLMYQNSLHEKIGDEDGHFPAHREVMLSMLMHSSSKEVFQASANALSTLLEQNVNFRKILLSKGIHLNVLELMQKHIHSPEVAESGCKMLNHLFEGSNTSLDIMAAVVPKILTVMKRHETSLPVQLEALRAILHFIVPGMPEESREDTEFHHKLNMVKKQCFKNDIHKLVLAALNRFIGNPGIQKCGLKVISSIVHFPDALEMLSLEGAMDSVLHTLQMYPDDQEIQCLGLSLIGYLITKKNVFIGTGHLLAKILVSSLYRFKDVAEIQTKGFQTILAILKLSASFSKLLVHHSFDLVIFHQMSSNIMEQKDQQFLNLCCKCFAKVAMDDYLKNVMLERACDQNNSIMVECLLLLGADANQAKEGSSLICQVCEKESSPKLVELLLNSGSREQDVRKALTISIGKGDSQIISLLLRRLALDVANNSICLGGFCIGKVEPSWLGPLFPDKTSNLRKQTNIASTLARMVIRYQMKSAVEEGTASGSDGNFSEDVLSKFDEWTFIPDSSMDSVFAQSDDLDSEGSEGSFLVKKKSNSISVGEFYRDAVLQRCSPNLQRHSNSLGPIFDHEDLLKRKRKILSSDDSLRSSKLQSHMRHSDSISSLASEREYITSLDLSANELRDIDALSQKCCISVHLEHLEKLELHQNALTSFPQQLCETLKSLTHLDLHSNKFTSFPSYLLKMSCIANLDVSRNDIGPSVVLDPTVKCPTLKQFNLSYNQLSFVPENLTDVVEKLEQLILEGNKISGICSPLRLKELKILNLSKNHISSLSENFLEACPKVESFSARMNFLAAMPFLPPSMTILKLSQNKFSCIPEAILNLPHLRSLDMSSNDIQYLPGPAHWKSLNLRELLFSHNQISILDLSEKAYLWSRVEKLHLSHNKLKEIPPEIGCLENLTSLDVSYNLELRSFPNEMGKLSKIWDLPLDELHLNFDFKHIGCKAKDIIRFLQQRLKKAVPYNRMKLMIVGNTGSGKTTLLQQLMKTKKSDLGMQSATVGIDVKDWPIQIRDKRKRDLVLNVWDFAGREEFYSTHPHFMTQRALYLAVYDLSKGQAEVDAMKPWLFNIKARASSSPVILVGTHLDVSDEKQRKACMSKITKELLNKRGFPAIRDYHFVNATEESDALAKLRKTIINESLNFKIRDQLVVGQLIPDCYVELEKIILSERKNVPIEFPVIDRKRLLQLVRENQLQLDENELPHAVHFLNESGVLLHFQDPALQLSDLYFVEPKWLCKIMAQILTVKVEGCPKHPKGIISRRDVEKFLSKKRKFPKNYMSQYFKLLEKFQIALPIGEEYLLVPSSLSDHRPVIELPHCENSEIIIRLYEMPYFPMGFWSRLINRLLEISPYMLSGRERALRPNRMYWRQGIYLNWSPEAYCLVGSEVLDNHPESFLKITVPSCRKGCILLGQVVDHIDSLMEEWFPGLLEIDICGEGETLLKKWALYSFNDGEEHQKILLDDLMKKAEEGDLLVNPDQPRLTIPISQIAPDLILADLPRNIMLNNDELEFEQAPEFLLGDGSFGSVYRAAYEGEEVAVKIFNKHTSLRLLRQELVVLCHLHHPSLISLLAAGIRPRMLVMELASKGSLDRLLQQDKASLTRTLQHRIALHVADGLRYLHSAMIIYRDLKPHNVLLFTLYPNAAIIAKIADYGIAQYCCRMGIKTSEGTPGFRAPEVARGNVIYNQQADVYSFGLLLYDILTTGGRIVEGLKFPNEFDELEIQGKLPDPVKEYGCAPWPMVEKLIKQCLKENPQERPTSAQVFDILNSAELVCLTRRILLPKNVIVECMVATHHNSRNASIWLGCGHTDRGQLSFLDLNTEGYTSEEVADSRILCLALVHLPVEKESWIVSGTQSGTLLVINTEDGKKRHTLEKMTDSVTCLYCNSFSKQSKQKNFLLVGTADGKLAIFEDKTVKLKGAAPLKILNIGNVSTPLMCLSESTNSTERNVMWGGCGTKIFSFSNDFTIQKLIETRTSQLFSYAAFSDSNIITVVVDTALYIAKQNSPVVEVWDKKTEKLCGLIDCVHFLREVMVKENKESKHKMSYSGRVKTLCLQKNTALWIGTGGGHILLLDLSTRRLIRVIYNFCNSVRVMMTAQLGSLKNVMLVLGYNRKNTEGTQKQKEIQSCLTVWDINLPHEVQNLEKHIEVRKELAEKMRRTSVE
Test: not given
The note with it: binder. Further details: Differential scanning fluorometry, thermal stabilization of LRRK2 KW by compound. An excerpt:
Next, we evaluated the potency and selectivity of these new compounds. We performed on-target screening by measuring the thermostability increase of LRRK2^KW in the presence of the new compounds using DSF (Supporting Information Table S2). We also determined the in vitro IC50 (median inhibitory concentration) values for each of the new compounds by purifying LRRK2^RCKW and measuring its kinase activity in the presence of our new inhibitors using the PhosphoSense® activity assay from AssayQuant (Supporting Information Table S2). Finally, we estimated the kinome selectivity of each compound by measuring the thermostability increase of approximately 100 representative kinases in the presence of the compounds via DSF (Supporting Information Table S2). […] Additionally, we screened a library of published type-II inhibitors to identify those that bind to LRRK2^KW (a Kinase and WD40 domain construct of LRRK2) with high affinity.
`Cc1ccc(-n2nc(C(C)(C)C)cc2NC(=O)Nc2cccc(-c3c[nH]c4nc(Cl)nc(N5CCOCC5)c34)c2)cc1` [compound 30, RN277]: the “ΔTm [K]” value is 18.0 K.

With `CCSc1nc(NC)c2c(-c3cccc(NC(=O)Nc4cc(C(C)(C)C)nn4-c4ccc(C)cc4)c3)c[nH]c2n1` [compound 32, RN341], the “ΔTm [K]” value is 19.9 K.

Consider `COc1cc(C(=O)N2CCOCC2)c(F)cc1Nc1nc(N(C)C)c2c(Cl)c[nH]c2n1` [compound 33], for which the “ΔTm [K]” value stood at 16.0 K.

As for `COc1cc(S(C)(=O)=O)ccc1Nc1nc(N(C)C)c2c(-c3cccc(NC(=O)Nc4cc(C(C)(C)C)nn4-c4ccc(C)cc4)c3)c[nH]c2n1` [compound 35, 1-(3-(tert-butyl)-1-(p-tolyl)-1H-pyrazol-5-yl)-3-(3-(4-(dimethylamino)-2-((2-methoxy-4-(methylsulfonyl)phenyl)amino)-7H-pyrrolo[2,3-d]pyrimidin-5-yl)phenyl)urea], the “ΔTm [K]” value is recorded as 1.0 K.

For `COc1cc(C(=O)N2CCOCC2)c(F)cc1Nc1nc(N(C)C)c2c(-c3cccc(NC(=O)Nc4cc(C(C)(C)C)nn4-c4ccc(C)cc4)c3)c[nH]c2n1` [compound 36, 1-(3-(tert-butyl)-1-(p-tolyl)-1H-pyrazol-5-yl)-3-(3-(4-(dimethylamino)-2-((5-fluoro-2-methoxy-4-(morpholine-4-carbonyl)phenyl)amino)-7H-pyrrolo[2,3-d]pyrimidin-5-yl)phenyl)urea], the “ΔTm [K]” value was 0.0 K.

Another experiment addresses T1, LRRK2^KW.
Test: not given
The note with it: binder. Further details: DSF thermal shift of purified LRRK2 KW construct with compound. The source holds these as a separate data set. An excerpt: Additionally, we screened a library of published type-II inhibitors to identify those that bind to LRRK2^KW (a Kinase and WD40 domain construct of LRRK2) with high affinity. […] Next, we evaluated the potency and selectivity of these new compounds. We performed on-target screening by measuring the thermostability increase of LRRK2^KW in the presence of the new compounds using DSF (Supporting Information Table S2). We also determined the in vitro IC50 (median inhibitory concentration) values for each of the new compounds by purifying LRRK2^RCKW and measuring its kinase activity in the presence of our new inhibitors using the PhosphoSense® activity assay from AssayQuant (Supporting Information Table S2). Finally, we estimated the kinome selectivity of each compound by measuring the thermostability increase of approximately 100 representative kinases in the presence of the compounds via DSF (Supporting Information Table S2).
Regarding `CCN1CCN(Cc2ccc(NC(=O)c3ccc(C)c(NC(=O)c4cncc(-c5cccs5)c4)c3)cc2C(F)(F)F)CC1` [ALW-II-41-27], the “dTm LRRK2(KW)” value is -0.5 K.

Consider `Cc1ccc(NC(=O)c2cccc(C(C)(C)C#N)c2)cc1Nc1ccc2ncn(C)c(=O)c2c1` [AZ 628], for which the “dTm LRRK2(KW)” value was -0.5 K.

As to `N#CC1(c2ccc(NC(=O)c3cccnc3NCc3ccncc3)cc2)CCCC1` [Apatinib], the “dTm LRRK2(KW)” value is -1 K.

Take `COc1cc(Oc2ccnc3cc(OC)c(OC)cc23)ccc1NC(=O)NC(C)c1nccs1` (stereo not drawn) [KI20227]: the “dTm LRRK2(KW)” value worked out at 3 K.

On to `CC1(C)CNc2cc(NC(=O)c3cccnc3NCc3ccncc3)ccc21` [Motesanib], for which the “dTm LRRK2(KW)” value is on record as -0.5 K.

On to `Cc1ccc(C(=O)Nc2cccc(C(F)(F)F)c2)cc1Nc1nc(-c2cccnc2)nc2c1cnn2C` [NVP-BHG712], for which the “dTm LRRK2(KW)” value is reported as -0.5 K.

As for `Cc1cn(-c2cc(NC(=O)c3ccc(C)c(Nc4nccc(-c5cccnc5)n4)c3)cc(C(F)(F)F)c2)cn1` [Nilotinib], the “dTm LRRK2(KW)” value is listed as -2.5 K.

Take `Cc1ccc(-n2nc(C(C)(C)C)cc2NC(=O)Nc2cc(COc3cccnc3)[nH]n2)cc1` [PF-4618433]: the “dTm LRRK2(KW)” value came out at 11 K.

Turning to `CNC(=O)c1cc(Oc2ccc(NC(=O)Nc3ccc(Cl)c(C(F)(F)F)c3)c(F)c2)ccn1` [Regorafinib], the “dTm LRRK2(KW)” value stood at 5.5 K.

Regarding `Cc1ccc(NC(=O)c2cccc(N(C)C)c2)cc1NC(=O)c1ccc(O)cc1` [ZM336372], the “dTm LRRK2(KW)” value is -1 K.

For `COc1cc2c(Nc3ccc(NC(=O)c4ccccc4)cc3)ncnc2cc1OCCCN1CCOCC1` [ZM447439], the “dTm LRRK2(KW)” value is listed as 6.5 K.

In the case of `NC(=O)C1(C(=O)N(c2ccc(F)cc2)c2ccc(Oc3ccc4n[nH]cc4c3)cc2)CC1` [compound 48, N-(4-((2H-indazol-5-yl)oxy)phenyl)-N-(4-fluorophenyl)cyclopropane-1,1-dicarboxamide], the “∆Tm [K]” value was determined as 1.0 K.

`NC(=O)C1(C(=O)N(c2ccc(F)cc2)c2ccc(Nc3ccc4n[nH]cc4c3)cc2)CC1` [compound 49, N-(4-((2H-indazol-5-yl)amino)phenyl)-N-(4-fluorophenyl)cyclopropane-1,1-dicarboxamide]: the “∆Tm [K]” value turned out to be 2.0 K.

As for `Cc1cn(-c2cc(NC(=O)c3ccc(C)c(Nc4ccc5n[nH]cc5c4)c3)cc(C(F)(F)F)c2)cn1` [compound 50, 3-((2H-indazol-5-yl)amino)-4-methyl-N-(3-(4-methyl-1H-imidazol-1-yl)-5-(trifluoromethyl)phenyl)benzamide], the “∆Tm [K]” value stood at 1.5 K.

For the compound `NC(=O)C1(C(=O)N(c2ccc(F)cc2)c2ccc3cn[nH]c3c2)CC1` [compound 51, N-(4-fluorophenyl)-N-(1H-indazol-6-yl)cyclopropane-1,1-dicarboxamide], the “∆Tm [K]” value is 1.0 K.

The target of a further experiment is T2, leucine-rich repeat kinase 2 (LRRK2) (Homo sapiens, UniProt Q5S007).
T2 construct: LRRK2^RCKW (ROC, COR, Kinase, WD40)
T2 sequence (Q5S007 1327-2527 limits assumed): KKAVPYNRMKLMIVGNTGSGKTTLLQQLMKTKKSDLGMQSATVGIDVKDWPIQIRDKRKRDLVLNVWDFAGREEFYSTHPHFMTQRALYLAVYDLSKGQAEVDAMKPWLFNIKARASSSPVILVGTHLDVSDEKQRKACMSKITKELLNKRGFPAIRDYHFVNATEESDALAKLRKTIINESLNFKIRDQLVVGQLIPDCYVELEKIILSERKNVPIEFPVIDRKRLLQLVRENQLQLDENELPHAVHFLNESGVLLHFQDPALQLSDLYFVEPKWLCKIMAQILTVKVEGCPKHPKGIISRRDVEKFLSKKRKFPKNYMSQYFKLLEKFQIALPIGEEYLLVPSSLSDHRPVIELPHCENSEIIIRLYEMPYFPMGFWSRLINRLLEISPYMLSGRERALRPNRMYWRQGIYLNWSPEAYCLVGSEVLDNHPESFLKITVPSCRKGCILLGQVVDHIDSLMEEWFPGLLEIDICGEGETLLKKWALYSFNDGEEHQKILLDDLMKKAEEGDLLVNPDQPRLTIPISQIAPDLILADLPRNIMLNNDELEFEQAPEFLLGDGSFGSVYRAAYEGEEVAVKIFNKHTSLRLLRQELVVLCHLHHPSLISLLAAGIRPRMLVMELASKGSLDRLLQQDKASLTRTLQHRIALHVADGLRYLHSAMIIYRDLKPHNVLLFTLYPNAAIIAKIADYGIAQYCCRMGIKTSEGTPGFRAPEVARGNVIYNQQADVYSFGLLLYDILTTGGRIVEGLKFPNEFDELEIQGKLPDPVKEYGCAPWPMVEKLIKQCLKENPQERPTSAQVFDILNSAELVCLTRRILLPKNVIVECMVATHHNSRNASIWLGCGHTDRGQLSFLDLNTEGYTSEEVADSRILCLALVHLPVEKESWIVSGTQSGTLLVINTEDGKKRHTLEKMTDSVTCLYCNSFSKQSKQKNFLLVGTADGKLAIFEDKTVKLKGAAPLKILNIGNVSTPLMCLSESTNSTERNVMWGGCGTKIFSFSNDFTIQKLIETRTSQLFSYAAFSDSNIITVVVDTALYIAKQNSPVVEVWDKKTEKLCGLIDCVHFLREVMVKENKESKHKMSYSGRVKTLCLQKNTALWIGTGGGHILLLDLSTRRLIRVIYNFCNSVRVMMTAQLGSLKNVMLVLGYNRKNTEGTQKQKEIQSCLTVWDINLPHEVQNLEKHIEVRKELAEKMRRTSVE
The experiment can be described thus: biochemical. Further details: PhosphoSense (AssayQuant) kinase activity assay with purified LRRK2 RCKW.
Settings: not given
An excerpt: Next, we evaluated the potency and selectivity of these new compounds. We performed on-target screening by measuring the thermostability increase of LRRK2^KW in the presence of the new compounds using DSF (Supporting Information Table S2). We also determined the in vitro IC50 (median inhibitory concentration) values for each of the new compounds by purifying LRRK2^RCKW and measuring its kinase activity in the presence of our new inhibitors using the PhosphoSense® activity assay from AssayQuant (Supporting Information Table S2). Finally, we estimated the kinome selectivity of each compound by measuring the thermostability increase of approximately 100 representative kinases in the presence of the compounds via DSF (Supporting Information Table S2).
With `NC(=O)C1(C(=O)N(c2ccc(F)cc2)c2cccc(-c3c[nH]c4ncnc(N5CCOCC5)c34)c2)CC1` [compound 2, N-(4-fluorophenyl)-N-(3-(4-morpholino-7H-pyrrolo[2,3-d]pyrimidin-5-yl)phenyl)cyclopropane-1,1-dicarboxamide], inhibition was half-maximal at 0.185 ± 0.01 µM (IC50).

On to `NC(=O)C1(C(=O)N(c2ccc(F)cc2)c2cccc(-c3c[nH]c4ncnc(N5CCOCC5)c34)c2)CCCC1` [compound 3, N-(4-fluorophenyl)-N-(3-(4-morpholino-7H-pyrrolo[2,3-d]pyrimidin-5-yl)phenyl)cyclopentane-1,1-dicarboxamide], for which the concentration for half-maximal inhibition (IC50) was 0.694 ± 0.001 µM.

Take `Cc1ccc(N(C(=O)C2(C(N)=O)CC2)c2ccc(F)cc2)cc1-c1c[nH]c2ncnc(N3CCOCC3)c12` [compound 5, N-(4-fluorophenyl)-N-(4-methyl-3-(4-morpholino-7H-pyrrolo[2,3-d]pyrimidin-5-yl)phenyl)cyclopropane-1,1-dicarboxamide]: half-maximal inhibition (IC50) required 9.58 ± 0.565 µM.

In turn, `Cc1cc(-c2c[nH]c3ncnc(N4CCOCC4)c23)cc(N(C(=O)C2(C(N)=O)CC2)c2ccc(F)cc2)c1` [compound 6, N-(4-fluorophenyl)-N-(3-methyl-5-(4-morpholino-7H-pyrrolo[2,3-d]pyrimidin-5-yl)phenyl)cyclopropane-1,1-dicarboxamide] showed a half-inhibitory concentration (IC50) of 2.15 ± 0.076 µM.

Compound `Cc1ccc(-c2c[nH]c3ncnc(N4CCOCC4)c23)cc1N(C(=O)C1(C(N)=O)CC1)c1ccc(F)cc1` [compound 7, N-(4-fluorophenyl)-N-(2-methyl-5-(4-morpholino-7H-pyrrolo[2,3-d]pyrimidin-5-yl)phenyl)cyclopropane-1,1-dicarboxamide] yielded a half-inhibitory concentration (IC50) of 10.5 ± 1.02 µM.

As for `Cn1cc(N(C(=O)C2(C(N)=O)CC2)c2cccc(-c3c[nH]c4ncnc(N5CCOCC5)c34)c2)cn1` [compound 9, N-(1-methyl-1H-pyrazol-4-yl)-N-(3-(4-morpholino-7H-pyrrolo[2,3-d]pyrimidin-5-yl)phenyl)cyclopropane-1,1-dicarboxamide], it took 2.11 ± 1.19 µM to reach half-maximal inhibition (IC50).

The same experiment, now with this note: read-out: IC50 (cells in μM).
For the compound `NC(=O)C1(C(=O)N(c2ccc(F)cc2)c2ccc(Oc3ccc4n[nH]cc4c3)cc2)CC1` [compound 48, N-(4-((2H-indazol-5-yl)oxy)phenyl)-N-(4-fluorophenyl)cyclopropane-1,1-dicarboxamide], the IC50 is over 15 µM.

As for `NC(=O)C1(C(=O)N(c2ccc(F)cc2)c2ccc(Nc3ccc4n[nH]cc4c3)cc2)CC1` [compound 49, N-(4-((2H-indazol-5-yl)amino)phenyl)-N-(4-fluorophenyl)cyclopropane-1,1-dicarboxamide], the IC50 is over 15 µM.

Regarding `Cc1cn(-c2cc(NC(=O)c3ccc(C)c(Nc4ccc5n[nH]cc5c4)c3)cc(C(F)(F)F)c2)cn1` [compound 50, 3-((2H-indazol-5-yl)amino)-4-methyl-N-(3-(4-methyl-1H-imidazol-1-yl)-5-(trifluoromethyl)phenyl)benzamide], the half-maximal inhibitory concentration (IC50) was over 15 µM.

Consider `NC(=O)C1(C(=O)N(c2ccc(F)cc2)c2ccc3cn[nH]c3c2)CC1` [compound 51, N-(4-fluorophenyl)-N-(1H-indazol-6-yl)cyclopropane-1,1-dicarboxamide], for which the IC50 was over 15 µM.
